Results from patent publication US6521283B1, “Non-thrombogenic surfaces” (Biocompatibles Limited, priority 1990, dated 2003).
Where “and” joins values, the source holds several entries; their conditions need not be identical. Equal entries are not always repeated. Marks after values point to notes of the source that are not given here.

Legend:
recalcified blood = experiment: in-use simulation: recalcified blood incubated in catheter segments, clot formation; set-up: species or system human; conditions: 15 cm catheter segment, frosted region, coated according to Example 2, 37° C., 150 minutes
Method: Three 15 cm segments of catheter (frosted region) coated according to Example 2 were prepared with the ends sealed using Eppendorf tubes. 40 ml of blood was collected from an adult volunteer into tri-sodium citrate (32 g/l) using the double syringe technique (the first 5 ml were discarded). 2 ml of 0.025 M calcium chloride in 0.15 M sodium chloride was added to 10 ml of citrated blood. 4 ml of recalcified blood was then added to each of the three catheter segments. The tubes were placed in a 37° C. incubator for 150 minutes. The samples were turned every 30 minutes. After this incubation the blood was drained from each of the catheters. They were then rinsed using PBS to remove any loosely bound material.

platelets = experiment: quantitative platelet adhesion test (ATP luminometry) in fresh citrated whole human blood; type: cell-based
Method: A quantitative platelet adhesion test was carried out by immersing samples in fresh citrated whole human blood at room temperature for 30 minutes. Tubing samples were prepared in 3 cm lengths sealed at both ends (the blood being introduced into the sample by hypodermic needle), and constantly mixed using a spiral mixer (tests were carried out in triplicate). Blood used in this assay was obtained using the double syringe method.
After incubation the samples were washed in isotonic phosphate buffered saline (PBS) and extracted into 1% trichloro acetate (TCA) (w/v) in 2 mM ethylene diamine tetraacetic acid (EDTA) to liberate ATP from any platelets adhering to the walls of the tubing.
The amount of ATP present in the extractant was estimated using the LKB Pharmacia ATP assay kit and a luminometer.
The number of platelets adhering to the samples was estimated from a standard curve using ATP levels associated with a known number of platelets.

[1] = wettability: static contact angles with distilled water drops; type: physicochemical; conditions: for Contact angles (°) (average) / Contact angles (°), single readings: distilled water drops after 5 minutes
Method: The wettability of materials coated with DPPC according to the preceding examples was assessed by measurement of static contact angles using distilled water drops after 5 minutes in contact with the surface.

[2] = tested on: blood cells / platelet cells; experiment: haemocompatibility of suture materials by scanning electron microscopy after incubation in whole blood; type: cell-based, human; conditions: braided polyester yarn suture material coated at 10 mg/ml (Example 3)
Method: Samples of the braided material treated according to Example 3 were incubated in fresh, citrated whole blood as described in Example 10 above. After removal from the blood these materials were washed using PBS and prepared for scanning electron microscopy by fixing in an aliquot of the following solution:
83 ml 0.15 M PBS (pH 7.4) 15 ml saturated picric acid
The samples were washed in PBS and dehydrated using 70% ethanol, followed by absolute ethanol. Finally samples were sputter coated with gold (at 30 mA for 3 minutes) and observed under the electron microscope.

[3] = PE (polyethylene) treated at 10 mg/ml
[4] = PVC thoracic drain catheter, clear region, coated at 10 mg/ml (Example 2)
[5] = PVC thoracic drain catheter, frosted region, coated at 10 mg/ml (Example 2)
[6] = polystyrene petri dish spin-coated at 10 mg/ml (Example 4)
[7] = PVC thoracic drain catheter coated as Ex. 2 at 10 mg/ml
[8] = polyethylene coated as Ex. 5 at 10 mg/ml
[9] = soft PVC tubing coated as Ex. 1
[10] = FEP IV catheters treated at 10 mg/ml in ethanol (Example 8)
[11] = hard PVC tubing coated with 5 mg/ml solution (Example 1)
[12] = hard PVC tubing coated with 10 mg/ml solution (Example 1)
[13] = polypropylene hollow fibre membrane treated at 2 mg/ml (Example 7)
[14] = polypropylene hollow fibre membrane treated at 10 mg/ml (Example 7)
[15] = polypropylene hollow fibre membrane treated at 10 mg/ml (Example 7), includes outlier
[16] = soft PVC tubing coated with 5 mg/ml solution (Example 1)
[17] = soft PVC tubing coated with 10 mg/ml solution (Example 1)

CCCCCCCCCCCCCC(=O)OC[C@H](COP(=O)([O-])OCC[N+](C)(C)C)OC(=O)CCCCCCCCCCCCC [DMPC, dimyristoyl phosphatidyl choline]
drainage of blood and clot remaining in catheter (recalcified blood): Whole blood drained easily. One small clot remained attached to the surface | % Reduction (platelet adhesion vs uncoated PE) (platelets; [3]): 94% | platelets adhered, DONOR 1 (platelets; [3]): 0.91 no. of platelets ×10^6 per 22 mm^2 area of material | platelets adhered, DONOR 2 (platelets; [3]): 1.38 no. of platelets ×10^6 per 22 mm^2 area of material | platelets adhered, DONOR 3 (platelets; [3]): 3.99 no. of platelets ×10^6 per 22 mm^2 area of material | platelets adhered, X̄ (mean of donors) (platelets; [3]): 2.09 no. of platelets ×10^6 per 22 mm^2 area of material | % Reduction (platelet adhesion vs uncoated) (platelets; [4]): 56.1% | platelets adhered, DONOR 1 (platelets; [4]): 15.26 platelets adhered ×10^6 per 3 cm lengths of catheters | platelets adhered, DONOR 2 (platelets; [4]): 8.09 platelets adhered ×10^6 per 3 cm lengths of catheters | platelets adhered, DONOR 3 (platelets; [4]): 16.78 platelets adhered ×10^6 per 3 cm lengths of catheters | platelets adhered, X̄ (mean of donors) (platelets; [4]): 13.38 platelets adhered ×10^6 per 3 cm lengths of catheters | % Reduction (platelet adhesion vs uncoated) (platelets; [5]): 95% | platelets adhered, DONOR 1 (platelets; [5]): 0.31 platelets adhered ×10^6 per 3 cm lengths of catheters | platelets adhered, DONOR 2 (platelets; [5]): 0.11 platelets adhered ×10^6 per 3 cm lengths of catheters | platelets adhered, DONOR 3 (platelets; [5]): 0.56 platelets adhered ×10^6 per 3 cm lengths of catheters | platelets adhered, X̄ (mean of donors) (platelets; [5]): 0.33 platelets adhered ×10^6 per 3 cm lengths of catheters | % Reduction (platelet adhesion vs uncoated) (platelets; [6]): 97% | platelets adhered, DONOR 1 (platelets; [6]): 1.20 no. of platelets ×10^6 adhered per petri dish (50 mm diameter) | platelets adhered, DONOR 2 (platelets; [6]): 0.26 no. of platelets ×10^6 adhered per petri dish (50 mm diameter) | platelets adhered, DONOR 3 (platelets; [6]): 3.78 no. of platelets ×10^6 adhered per petri dish (50 mm diameter) | platelets adhered, X̄ (mean of donors) (platelets; [6]): 1.75 no. of platelets ×10^6 adhered per petri dish (50 mm diameter)

CCCCCCCCCCCCCCCC(=O)OC[C@H](COP(=O)([O-])OCC[N+](C)(C)C)OC(=O)CCCCCCCCCCCCCCC [DPPC, dipalmitoyl phosphatidyl choline]
Contact angles (°) (average) [1, 7]: 24 ° | Contact angles (°), single readings [1, 7]: 26 ° and 19 ° | Conclusion (wettability) [1, 8]: Wettable surface | Contact angles (°) (average) [1, 8]: 15 ° | Contact angles (°), single readings [1, 8]: 12 ° and 21 ° | Conclusion (wettability) [1, 9]: Wettable surface | Contact angles (°) (average) [1, 9]: 8 ° | Contact angles (°), single readings [1, 9]: 9 ° and < 5 ° and 10 ° | activation of platelet cells (electron microscopy) [2]: platelet cells are not activated | adhesion of blood cells (electron microscopy) [2]: adhere fewer blood cells than untreated materials | thrombogenicity vs untreated braided yarns [2]: appear less thrombogenic | drainage of blood and clot remaining in catheter (recalcified blood): blood drained easily. One small clot remained attached to the surface | % Reduction (platelet adhesion vs untreated catheters) (platelets; [10]): 65% | platelets adhered, DONOR 1 (platelets; [10]): 1.89 platelets ×10^6 per 5 cm length of catheter | platelets adhered, DONOR 2 (platelets; [10]): 1.24 platelets ×10^6 per 5 cm length of catheter | platelets adhered, DONOR 3 (platelets; [10]): 5.84 platelets ×10^6 per 5 cm length of catheter | platelets adhered, X̄ (mean of donors) (platelets; [10]): 2.99 platelets ×10^6 per 5 cm length of catheter | % Reduction (platelet adhesion vs uncoated PE) (platelets; [3]): 94% | platelets adhered, DONOR 1 (platelets; [3]): 1.58 no. of platelets ×10^6 per 22 mm^2 area of material | platelets adhered, DONOR 2 (platelets; [3]): 3.76 no. of platelets ×10^6 per 22 mm^2 area of material | platelets adhered, DONOR 3 (platelets; [3]): 1.72 no. of platelets ×10^6 per 22 mm^2 area of material | platelets adhered, X̄ (mean of donors) (platelets; [3]): 2.35 no. of platelets ×10^6 per 22 mm^2 area of material | % Reduction (platelet adhesion vs uncoated) (platelets; [4]): 97% | platelets adhered, DONOR 1 (platelets; [4]): 0.53 platelets adhered ×10^6 per 3 cm lengths of catheters | platelets adhered, DONOR 2 (platelets; [4]): 1.38 platelets adhered ×10^6 per 3 cm lengths of catheters | platelets adhered, DONOR 3 (platelets; [4]): 0.60 platelets adhered ×10^6 per 3 cm lengths of catheters | platelets adhered, X̄ (mean of donors) (platelets; [4]): 0.84 platelets adhered ×10^6 per 3 cm lengths of catheters | % Reduction (platelet adhesion vs uncoated) (platelets; [5]): 87% | platelets adhered, DONOR 1 (platelets; [5]): 0.88 platelets adhered ×10^6 per 3 cm lengths of catheters | platelets adhered, DONOR 2 (platelets; [5]): 1.05 platelets adhered ×10^6 per 3 cm lengths of catheters | platelets adhered, DONOR 3 (platelets; [5]): 0.59 platelets adhered ×10^6 per 3 cm lengths of catheters | platelets adhered, X̄ (mean of donors) (platelets; [5]): 0.84 platelets adhered ×10^6 per 3 cm lengths of catheters | platelet adhesion to coated PVC / thrombogenicity of PVC tubing (platelets; PVC tubing coated according to Example 1): large reduction in the thrombogenicity | % Reduction (platelet adhesion vs uncoated control) (platelets; [11]): 94% | platelets adhered, DONOR 2 (platelets; [11]): 0.13 no. of platelets ×10^6 per 3 cm lengths of tubing | platelets adhered, DONOR 3 (platelets; [11]): 0.19 no. of platelets ×10^6 per 3 cm lengths of tubing | platelets adhered, X̄ (mean of donors) (platelets; [11]): 0.35 no. of platelets ×10^6 per 3 cm lengths of tubing | platelets adhered, DONOR 1 (platelets; hard PVC tubing coated with 5 mg/ml solution (Example 1), 30 min, room temperature): 0.72 no. of platelets ×10^6 per 3 cm lengths of tubing | % Reduction (platelet adhesion vs uncoated control) (platelets; [12]): 97% | platelets adhered, DONOR 1 (platelets; [12]): 0.51 no. of platelets ×10^6 per 3 cm lengths of tubing | platelets adhered, DONOR 2 (platelets; [12]): 0.14 no. of platelets ×10^6 per 3 cm lengths of tubing | platelets adhered, DONOR 3 (platelets; [12]): 0.10 no. of platelets ×10^6 per 3 cm lengths of tubing | platelets adhered, X̄ (mean of donors) (platelets; [12]): 0.25 no. of platelets ×10^6 per 3 cm lengths of tubing | % Reduction (platelet adhesion vs untreated) (platelets; [13]): 91% | platelets adhered, DONOR 1 (platelets; [13]): 0.91 no. of platelets ×10^6 per 20 cm length of fibre | platelets adhered, DONOR 2 (platelets; [13]): 0.89 no. of platelets ×10^6 per 20 cm length of fibre | platelets adhered, DONOR 3 (platelets; [13]): 0.53 no. of platelets ×10^6 per 20 cm length of fibre | platelets adhered, X̄ (mean of donors) (platelets; [13]): 0.78 no. of platelets ×10^6 per 20 cm length of fibre | platelets adhered, DONOR 1 (platelets; [14]): 0.41 no. of platelets ×10^6 per 20 cm length of fibre | platelets adhered, DONOR 3 (platelets; [14]): 0.52 no. of platelets ×10^6 per 20 cm length of fibre | % Reduction (platelet adhesion vs untreated) (platelets; [15]): 56% | platelets adhered, X̄ (mean of donors) (platelets; [15]): 3.67 no. of platelets ×10^6 per 20 cm length of fibre | platelets adhered, DONOR 2 (platelets; polypropylene hollow fibre membrane treated at 10 mg/ml (Example 7), result thought to be an outlier): 10.08* no. of platelets ×10^6 per 20 cm length of fibre | % Reduction (platelet adhesion vs uncoated) (platelets; [6]): 92% | platelets adhered, DONOR 1 (platelets; [6]): 5.54 no. of platelets ×10^6 adhered per petri dish (50 mm diameter) | platelets adhered, DONOR 2 (platelets; [6]): 3.55 no. of platelets ×10^6 adhered per petri dish (50 mm diameter) | platelets adhered, DONOR 3 (platelets; [6]): 3.08 no. of platelets ×10^6 adhered per petri dish (50 mm diameter) | platelets adhered, X̄ (mean of donors) (platelets; [6]): 4.06 no. of platelets ×10^6 adhered per petri dish (50 mm diameter) | % Reduction (platelet adhesion vs uncoated control) (platelets; [16]): 96% | platelets adhered, DONOR 1 (platelets; [16]): 0.76 no. of platelets ×10^6 per 3 cm lengths of tubing | platelets adhered, DONOR 2 (platelets; [16]): 0.72 no. of platelets ×10^6 per 3 cm lengths of tubing | platelets adhered, DONOR 3 (platelets; [16]): 0.30 no. of platelets ×10^6 per 3 cm lengths of tubing | platelets adhered, X̄ (mean of donors) (platelets; [16]): 0.59 no. of platelets ×10^6 per 3 cm lengths of tubing | % Reduction (platelet adhesion vs uncoated control) (platelets; [17]): 90% | platelets adhered, DONOR 1 (platelets; [17]): 0.97 no. of platelets ×10^6 per 3 cm lengths of tubing | platelets adhered, DONOR 2 (platelets; [17]): 1.89 no. of platelets ×10^6 per 3 cm lengths of tubing | platelets adhered, DONOR 3 (platelets; [17]): 1.25 no. of platelets ×10^6 per 3 cm lengths of tubing | platelets adhered, X̄ (mean of donors) (platelets; [17]): 1.37 no. of platelets ×10^6 per 3 cm lengths of tubing
